One assay addresses T1, HSP90.
T1 construct: FLAG-tagged HSP90 expressed in GBM12 cells, immuno-precipitated by its tag
Nature of the assay: ATPase activity (ATP-lite luminescence) of immunoprecipitated FLAG-HSP90 on Sepharose beads. The assay is classed as biochemical. An excerpt:
ATPase activity (ATP-lite luminescence) of immunoprecipitated FLAG-HSP90 on Sepharose beads on HSP90 | In a dose-dependent fashion AR12 inhibited the ATPase activities of HSP90, HSP70 and GRP78

A further assay deals with T2, GRP78 (Homo sapiens, UniProt P11021).
T2 construct: gene HSPA5; GRP78 expressed from a plasmid in GBM12 cells, immuno-precipitated with an antibody to the COOH terminal portion
T2 sequence (P11021 19-654): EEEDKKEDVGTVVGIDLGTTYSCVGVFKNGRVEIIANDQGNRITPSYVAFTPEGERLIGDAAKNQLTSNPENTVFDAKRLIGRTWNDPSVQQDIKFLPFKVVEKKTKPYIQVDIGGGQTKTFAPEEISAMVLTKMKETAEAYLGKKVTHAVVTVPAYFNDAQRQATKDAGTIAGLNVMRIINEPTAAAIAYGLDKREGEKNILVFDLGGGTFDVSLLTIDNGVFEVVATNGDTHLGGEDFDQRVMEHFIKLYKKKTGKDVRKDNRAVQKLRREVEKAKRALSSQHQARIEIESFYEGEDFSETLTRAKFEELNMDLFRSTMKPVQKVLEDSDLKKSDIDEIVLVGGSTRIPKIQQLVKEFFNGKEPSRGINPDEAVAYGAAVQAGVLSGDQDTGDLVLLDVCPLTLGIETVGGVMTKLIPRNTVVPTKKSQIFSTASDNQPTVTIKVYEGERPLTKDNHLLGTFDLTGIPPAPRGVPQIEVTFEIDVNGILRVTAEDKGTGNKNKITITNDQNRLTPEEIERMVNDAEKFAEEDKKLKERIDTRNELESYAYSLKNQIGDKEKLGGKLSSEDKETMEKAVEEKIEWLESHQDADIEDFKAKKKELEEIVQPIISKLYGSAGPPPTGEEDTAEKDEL
Kind of assay: ATPase activity (ATP-lite luminescence) of immunoprecipitated GRP78 on Sepharose beads. The assay is classed as biochemical.

Broadly, the IC50 is the concentration that inhibits the measured activity by half. As to `NCC(=O)Nc1ccc(-n2nc(C(F)(F)F)cc2-c2ccc3c(ccc4ccccc43)c2)cc1` [AR12], the values for the IC50 against HSP90 and against GRP78 were about 300 nM and about 80 nM, respectively.

The values above are taken from PMC8312464, “Inhibition of heat shock proteins increases autophagosome formation, and reduces the expression of APP, Tau, SOD1 G93A and TDP-43” (Aging (Albany NY), 2021).
